From US10729680B2, “5-substituted 2-(morpholin-4-yl)-1,7-naphthyridines” (BAYER PHARMA AKTIENGESELLSCHAFT, priority 2016, dated 2020) come the findings set out here.

Broadly, the IC50 is the point on the concentration scale where inhibition reaches its midpoint.

The target in the assay is full-length human ATR protein (ATR/ATRIP) (Homo sapiens (Human), UniProt Q13535). The assay is described as follows: Binding Assay ATR (TR-FRET, tracer A displacement). The settings on record: displacement of fluorescent tracer A from GST-ATR/ATRIP. The source says: To determine of binding activity of the test compounds, full-length human ATR protein was expressed and purified together with ATRIP as described above. Furthermore, a fluorescently labelled compound (tracer A as described above) was used as a tracer molecule. Detection of the binding event of the tracer was achieved by time-resolved fluorescence energy transfer (TR-FRET). We used an anti-GST-Terbium antibody (CisBio) that binds to the GST-tag at the N-terminus of ATR-kinase. Excitation of Terbium with 337 nm light results in emission of fluorescent light with 545 nm. In case a tetrameric complex has formed (antiGST-Tb+GST-ATR+Strp2-ATRIP+tracer), part of the energy will be transferred from the Terbium to the fluorophore that itself emits light of 570 nm. Displacement of the fluorescent tracer by a test compound leads to a reduction of the TR-FRET-signal.
For the assay 50 nl of a 100-fold concentrated solution of the test compound in DMSO was pipetted into a black low volume 384 well microtiter plate (MTP, Greiner Bio-One, Frickenhausen, Germany). To prepare the ATR-working solution, ATR/ATRIP stock solution was diluted in assay buffer [50 mM HEPES (pH 7.0), 10 mM MgCl2, 1 mM DTT, 0.01% (w/v) Igepal, 0.01% (w/v) BSA] to 4.2 nM protein concentration (concentration may vary from lot to lot of protein preparation). AntiGST-Tb antibody was diluted to 4.2 nM. The ATR-working solution was incubated for 30 min at 22° C. prior to dispensing to pre-form the complex of antiGST-Tb+GST-ATR+ATRIP. Then, 3 μl of the ATR-working solution were added to the test compound and the mixture was incubated for 10 min at 22° C. to allow pre-binding of the test compounds to ATR/ATRIP. Then, 2 μl of a 100 nM solution of tracer A in assay buffer were added to the ATR-working solution. The resulting mixture was incubated for 30 min at 22° C. The measurement of the TR-FRET signal was performed in a standard HTRF-compatible MTP reader instrument (e.g. BMG Pherastar) by recording the fluorescence emissions at 545 nm and 570 nm after excitation at 337-350 nm. The ratio between emission at 570 nm divided by emission at 545 nm was calculated to give the well ratio. The experimental data (well ratios) were normalised by the following way: positive control contained ATR-working solution plus tracer A solution (=0% inhibition), the negative control contained all components except GST-ATR/ATRIP (=100% inhibition). Usually the compounds were tested on the same MTP in 11 different concentrations in the range of 20 μM to 0.1 nM (20 μM, 5.9 μM, 1.7 μM, 0.51 μM, 0.15 μM, 44 nM, 13 nM, 3.8 nM, 1.1 nM, 0.33 nM and 0.1 nM). The dilution series were prepared separately before the assay on the level of the 100 fold concentrated solutions in DMSO by serial 1:3.4 dilutions in duplicate values for each concentration. IC50 values were calculated by a 4 parameter fit using standard software (GraphPad prism or equivalent).
On the technique in general: Time-resolved FRET reads energy transfer from a long-lived donor to a nearby acceptor.

full-length human ATR protein (ATR/ATRIP), sequence (Q13535 other isoform, or with tags, fused parts or gaps): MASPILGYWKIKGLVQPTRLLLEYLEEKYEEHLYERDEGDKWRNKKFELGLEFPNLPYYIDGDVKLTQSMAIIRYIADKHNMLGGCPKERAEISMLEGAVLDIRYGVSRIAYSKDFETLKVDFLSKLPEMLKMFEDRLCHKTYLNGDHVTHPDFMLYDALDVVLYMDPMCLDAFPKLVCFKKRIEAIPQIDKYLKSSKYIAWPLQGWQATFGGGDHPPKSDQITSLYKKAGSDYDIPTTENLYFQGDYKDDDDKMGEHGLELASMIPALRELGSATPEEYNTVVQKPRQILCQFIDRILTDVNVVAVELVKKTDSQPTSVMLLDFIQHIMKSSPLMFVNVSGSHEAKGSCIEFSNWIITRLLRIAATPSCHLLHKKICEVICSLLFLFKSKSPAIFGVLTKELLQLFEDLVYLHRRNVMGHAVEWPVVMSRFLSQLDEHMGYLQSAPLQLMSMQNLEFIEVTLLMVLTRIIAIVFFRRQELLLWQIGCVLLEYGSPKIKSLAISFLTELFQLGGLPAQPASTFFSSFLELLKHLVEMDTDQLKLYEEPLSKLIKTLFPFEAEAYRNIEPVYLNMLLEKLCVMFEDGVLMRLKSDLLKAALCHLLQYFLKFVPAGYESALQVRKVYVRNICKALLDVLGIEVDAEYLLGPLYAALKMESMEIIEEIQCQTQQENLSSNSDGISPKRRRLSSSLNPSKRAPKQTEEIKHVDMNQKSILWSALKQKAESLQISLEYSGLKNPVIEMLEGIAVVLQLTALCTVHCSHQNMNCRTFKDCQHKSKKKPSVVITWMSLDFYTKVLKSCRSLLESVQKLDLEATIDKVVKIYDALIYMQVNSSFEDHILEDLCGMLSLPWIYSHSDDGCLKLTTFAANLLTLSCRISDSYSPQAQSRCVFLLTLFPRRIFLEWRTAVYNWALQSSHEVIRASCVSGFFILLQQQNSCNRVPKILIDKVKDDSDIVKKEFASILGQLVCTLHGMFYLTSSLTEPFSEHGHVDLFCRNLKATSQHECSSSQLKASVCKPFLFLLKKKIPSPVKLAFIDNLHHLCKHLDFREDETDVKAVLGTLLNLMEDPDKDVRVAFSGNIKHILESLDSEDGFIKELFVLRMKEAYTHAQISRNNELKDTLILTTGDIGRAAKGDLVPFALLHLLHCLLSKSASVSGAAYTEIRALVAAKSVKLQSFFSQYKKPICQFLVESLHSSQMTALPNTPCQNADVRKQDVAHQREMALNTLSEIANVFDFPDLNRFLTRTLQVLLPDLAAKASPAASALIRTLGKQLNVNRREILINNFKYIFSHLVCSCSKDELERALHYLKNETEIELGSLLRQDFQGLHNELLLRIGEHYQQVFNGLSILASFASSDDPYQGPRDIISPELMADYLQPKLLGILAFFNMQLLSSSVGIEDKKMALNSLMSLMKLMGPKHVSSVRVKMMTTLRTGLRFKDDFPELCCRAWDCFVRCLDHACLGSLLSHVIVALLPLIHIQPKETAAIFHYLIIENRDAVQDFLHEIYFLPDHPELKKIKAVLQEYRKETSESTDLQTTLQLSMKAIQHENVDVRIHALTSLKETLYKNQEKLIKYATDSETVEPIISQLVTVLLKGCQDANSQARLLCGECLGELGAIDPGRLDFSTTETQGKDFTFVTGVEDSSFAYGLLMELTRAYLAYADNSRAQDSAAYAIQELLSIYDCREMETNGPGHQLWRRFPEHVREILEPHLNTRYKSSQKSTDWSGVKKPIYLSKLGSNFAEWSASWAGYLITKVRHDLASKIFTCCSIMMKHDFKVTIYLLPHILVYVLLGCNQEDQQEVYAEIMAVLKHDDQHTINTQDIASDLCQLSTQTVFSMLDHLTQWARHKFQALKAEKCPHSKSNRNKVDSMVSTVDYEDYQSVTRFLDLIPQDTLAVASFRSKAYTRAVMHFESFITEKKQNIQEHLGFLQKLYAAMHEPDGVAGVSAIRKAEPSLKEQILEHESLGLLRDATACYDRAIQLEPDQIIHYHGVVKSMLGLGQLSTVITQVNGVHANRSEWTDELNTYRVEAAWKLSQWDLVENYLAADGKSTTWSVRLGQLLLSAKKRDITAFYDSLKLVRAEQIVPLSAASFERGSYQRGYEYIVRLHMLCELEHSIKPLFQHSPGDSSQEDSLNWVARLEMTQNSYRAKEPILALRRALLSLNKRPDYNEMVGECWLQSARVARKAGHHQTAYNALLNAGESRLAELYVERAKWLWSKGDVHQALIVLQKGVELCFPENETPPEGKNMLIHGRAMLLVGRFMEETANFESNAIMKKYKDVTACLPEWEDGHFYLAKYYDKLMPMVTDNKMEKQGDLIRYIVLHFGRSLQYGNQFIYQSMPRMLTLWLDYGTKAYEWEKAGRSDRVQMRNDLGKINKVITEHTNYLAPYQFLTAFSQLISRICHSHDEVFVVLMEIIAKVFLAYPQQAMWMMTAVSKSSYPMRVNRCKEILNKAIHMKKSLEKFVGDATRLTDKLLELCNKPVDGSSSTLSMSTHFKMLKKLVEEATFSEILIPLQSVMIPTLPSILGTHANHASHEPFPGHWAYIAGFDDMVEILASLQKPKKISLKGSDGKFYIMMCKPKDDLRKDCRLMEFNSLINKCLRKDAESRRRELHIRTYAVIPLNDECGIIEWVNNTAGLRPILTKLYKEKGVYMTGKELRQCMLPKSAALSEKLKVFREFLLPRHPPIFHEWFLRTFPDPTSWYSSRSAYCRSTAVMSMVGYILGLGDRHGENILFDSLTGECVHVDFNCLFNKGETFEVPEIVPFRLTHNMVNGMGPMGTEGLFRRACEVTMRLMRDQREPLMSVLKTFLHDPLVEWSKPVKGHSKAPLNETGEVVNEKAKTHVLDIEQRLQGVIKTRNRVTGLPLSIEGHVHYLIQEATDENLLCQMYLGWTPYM
full-length human ATR protein (ATR/ATRIP), sequence (Q8WXE1 other isoform, or with tags, fused parts or gaps partner): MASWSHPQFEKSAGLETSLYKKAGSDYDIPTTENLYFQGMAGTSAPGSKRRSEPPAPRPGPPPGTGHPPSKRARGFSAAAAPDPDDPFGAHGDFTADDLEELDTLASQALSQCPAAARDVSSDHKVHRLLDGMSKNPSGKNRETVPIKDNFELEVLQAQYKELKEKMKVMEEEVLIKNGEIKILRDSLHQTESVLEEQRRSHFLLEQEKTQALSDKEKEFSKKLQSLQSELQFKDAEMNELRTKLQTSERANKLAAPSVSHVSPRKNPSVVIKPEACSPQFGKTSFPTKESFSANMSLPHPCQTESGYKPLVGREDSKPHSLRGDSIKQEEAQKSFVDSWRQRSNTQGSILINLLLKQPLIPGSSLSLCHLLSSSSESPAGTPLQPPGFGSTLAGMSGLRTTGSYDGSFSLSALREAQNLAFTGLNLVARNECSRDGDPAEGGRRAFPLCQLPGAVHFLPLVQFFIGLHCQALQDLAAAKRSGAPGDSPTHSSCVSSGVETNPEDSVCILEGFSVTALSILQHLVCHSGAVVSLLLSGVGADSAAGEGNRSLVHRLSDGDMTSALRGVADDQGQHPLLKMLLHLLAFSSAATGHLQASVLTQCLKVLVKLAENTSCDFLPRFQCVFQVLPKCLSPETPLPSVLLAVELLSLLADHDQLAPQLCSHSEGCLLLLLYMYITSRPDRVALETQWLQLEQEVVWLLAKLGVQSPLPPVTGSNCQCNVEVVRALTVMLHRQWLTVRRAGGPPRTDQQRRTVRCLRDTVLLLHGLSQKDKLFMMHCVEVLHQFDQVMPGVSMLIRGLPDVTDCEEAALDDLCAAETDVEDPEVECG

In the case of `Cc1cnc(-c2ccn[nH]2)c2nc(N3CCOC[C@H]3C)cc(P(C)(C)=O)c12` [Example 18, 4-(dimethylphosphoryl)-5-methyl-2-[(3R)-3-methylmorpholin-4-yl]-8-(1H-pyrazol-5-yl)-1,7-naphthyridine], the half-maximal inhibitory concentration (IC50) came out at 0.0664 µM. Molecule `Cc1cnc(-c2ccn[nH]2)c2nc(N3CCOC[C@H]3C)cc(P(C)(=O)OCC(C)C)c12` (stereo partly drawn) [Example 19, 2-methylpropyl methyl{5-methyl-2-[(3R)-3-methylmorpholin-4-yl]-8-(1H-pyrazol-5-yl)-1,7-naphthyridin-4-yl}phosphinate] yielded an IC50 of 0.0349 µM. `Cc1cnc(-c2ccn[nH]2)c2nc(N3CCOC[C@H]3C)cc(-c3ccccc3)c12` [Example 20, 5-methyl-2-[(3R)-3-methylmorpholin-4-yl]-4-phenyl-8-(1H-pyrazol-5-yl)-1,7-naphthyridine] displayed an IC50 of 0.0244 µM. Turning to `Cc1cnc(-c2ccn[nH]2)c2nc(N3CCOC[C@H]3C)cc(-c3ccc4c(c3)OCCO4)c12` [Example 21, 4-(2,3-dihydro-1,4-benzodioxin-6-yl)-5-methyl-2-[(3R)-3-methylmorpholin-4-yl]-8-(1H-pyrazol-5-yl)-1,7-naphthyridine], the IC50 came out at 0.0179 µM. The molecule `Cc1cnc(-c2ccn[nH]2)c2nc(N3CCOC[C@H]3C)cc(-c3ccc(Cl)cc3Cl)c12` [Example 22, 4-(2,4-dichlorophenyl)-5-methyl-2-[(3R)-3-methylmorpholin-4-yl]-8-(1H-pyrazol-5-yl)-1,7-naphthyridine] came in with a concentration for half-maximal inhibition (IC50) of 0.0164 µM. The molecule `Cc1cnc(-c2ccn[nH]2)c2nc(N3CCOC[C@H]3C)cc(-c3cccc(CO)c3)c12` [Example 23, (3-{5-methyl-2-[(3R)-3-methylmorpholin-4-yl]-8-(1H-pyrazol-5-yl)-1,7-naphthyridin-4-yl}phenyl)methanol] yielded an IC50 of 0.014 µM. The result for `Cc1cnc(-c2ccn[nH]2)c2nc(N3CCOC[C@H]3C)cc(-c3ccc(F)cc3)c12` [Example 24, 4-(4-fluorophenyl)-5-methyl-2-[(3R)-3-methylmorpholin-4-yl]-8-(1H-pyrazol-5-yl)-1,7-naphthyridine] reads 0.0347 µM; that for `COc1ccc(-c2cc(N3CCOC[C@H]3C)nc3c(-c4ccn[nH]4)ncc(C)c23)cc1` [Example 25, 4-(4-methoxyphenyl)-5-methyl-2-[(3R)-3-methylmorpholin-4-yl]-8-(1H-pyrazol-5-yl)-1,7-naphthyridine], 0.0254 µM. `Cc1cnc(-c2ccn[nH]2)c2nc(N3CCOC[C@H]3C)cc(-c3cc(F)cc(F)c3F)c12` [Example 26, 5-methyl-2-[(3R)-3-methylmorpholin-4-yl]-8-(1H-pyrazol-5-yl)-4-(2,3,5-trifluorophenyl)-1,7-naphthyridine] registered an IC50 of 0.0112 µM. `COc1ccc(-c2cc(N3CCOC[C@H]3C)nc3c(-c4ccn[nH]4)ncc(C)c23)cn1` [Example 27, 4-(6-methoxypyridin-3-yl)-5-methyl-2-[(3R)-3-methylmorpholin-4-yl]-8-(1H-pyrazol-5-yl)-1,7-naphthyridine] yielded an IC50 of 0.0154 µM. Molecule `Cc1cnc(-c2ccn[nH]2)c2nc(N3CCOC[C@H]3C)cc(-c3ccc([S+](C)[O-])cc3)c12` (stereo partly drawn) [Example 29, 5-methyl-2-[(3R)-3-methylmorpholin-4-yl]-4-[4-(methylsulfinyl)phenyl]-8-(1H-pyrazol-5-yl)-1,7-naphthyridine] registered a half-maximal inhibitory concentration (IC50) of 0.0291 µM. This IC50 lies about 1.9-fold higher than the previous one. On to `COc1cccc(-c2cc(N3CCOC[C@H]3C)nc3c(-c4ccn[nH]4)ncc(C)c23)c1F` [Example 30, 4-(2-fluoro-3-methoxyphenyl)-5-methyl-2-[(3R)-3-methylmorpholin-4-yl]-8-(1H-pyrazol-5-yl)-1,7-naphthyridine], for which the 50% inhibitory concentration (IC50) was found to be 0.0175 µM.

Turning to `Cc1cnc(-c2ccn[nH]2)c2nc(N3CCOC[C@H]3C)cc(-c3ccccc3S(C)(=O)=O)c12` [Example 31, 5-methyl-2-[(3R)-3-methylmorpholin-4-yl]-4-[2-(methylsulfonyl)phenyl]-8-(1H-pyrazol-5-yl)-1,7-naphthyridine], the half-maximal inhibitory concentration (IC50) was 0.0472 µM.

Molecule `Cc1cnc(-c2ccn[nH]2)c2nc(N3CCOC[C@H]3C)cc(-c3ccc(NS(C)(=O)=O)cc3)c12` [Example 32, N-(4-{5-methyl-2-[(3R)-3-methylmorpholin-4-yl]-8-(1H-pyrazol-5-yl)-1,7-naphthyridin-4-yl}phenyl)methanesulfonamide] yielded a concentration for half-maximal inhibition (IC50) of 0.00431 µM. As for `Cc1cnc(-c2ccn[nH]2)c2nc(N3CCOC[C@H]3C)cc(C3=CCCC3)c12` [Example 33, 4-(cyclopent-1-en-1-yl)-5-methyl-2-[(3R)-3-methylmorpholin-4-yl]-8-(1H-pyrazol-5-yl)-1,7-naphthyridine], the concentration for half-maximal inhibition (IC50) came to 0.0265 µM. Take `Cc1cnc(-c2ccn[nH]2)c2nc(N3CCOC[C@H]3C)cc(-c3ccc(C(=O)N(C)C)cc3)c12` [Example 35, N,N-dimethyl-4-{5-methyl-2-[(3R)-3-methylmorpholin-4-yl]-8-(1H-pyrazol-5-yl)-1,7-naphthyridin-4-yl}benzamide]: the IC50 came to 0.0288 µM.

Turning to `Cc1cc(-c2cc(N3CCOC[C@H]3C)nc3c(-c4ccn[nH]4)ncc(C)c23)ccc1Cl` [Example 36, 4-(4-chloro-3-methylphenyl)-5-methyl-2-[(3R)-3-methylmorpholin-4-yl]-8-(1H-pyrazol-5-yl)-1,7-naphthyridine], the IC50 stood at 0.456 µM. The molecule `COc1cccc(-c2cc(N3CCOC[C@H]3C)nc3c(-c4ccn[nH]4)ncc(C)c23)c1OC` [Example 37, 4-(2,3-dimethoxyphenyl)-5-methyl-2-[(3R)-3-methylmorpholin-4-yl]-8-(1H-pyrazol-5-yl)-1,7-naphthyridine] returned an IC50 of 0.0138 µM. In turn, `COc1cc(Cl)ccc1-c1cc(N2CCOC[C@H]2C)nc2c(-c3ccn[nH]3)ncc(C)c12` [Example 38, 4-(4-chloro-2-methoxyphenyl)-5-methyl-2-[(3R)-3-methylmorpholin-4-yl]-8-(1H-pyrazol-5-yl)-1,7-naphthyridine] registered a concentration for half-maximal inhibition (IC50) of 0.0479 µM. This IC50 is about 3.5-fold higher than that of the molecule before. The result for `CSc1ccc(-c2cc(N3CCOC[C@H]3C)nc3c(-c4ccn[nH]4)ncc(C)c23)cc1` [Example 39, 5-methyl-2-[(3R)-3-methylmorpholin-4-yl]-4-[4-(methylsulfanyl)phenyl]-8-(1H-pyrazol-5-yl)-1,7-naphthyridine] reads 0.0319 µM; that for `Cc1cnc(-c2ccn[nH]2)c2nc(N3CCOC[C@H]3C)cc(-c3cccc(N(C)C)c3)c12` [Example 40, N,N-dimethyl-3-{5-methyl-2-[(3R)-3-methylmorpholin-4-yl]-8-(1H-pyrazol-5-yl)-1,7-naphthyridin-4-yl}aniline], 0.0343 µM.

The molecule `Cc1cnc(-c2ccn[nH]2)c2nc(N3CCOC[C@H]3C)cc(-c3cccc(S(C)(=O)=O)c3)c12` [Example 41, 5-methyl-2-[(3R)-3-methylmorpholin-4-yl]-4-[3-(methylsulfonyl)phenyl]-8-(1H-pyrazol-5-yl)-1,7-naphthyridine] yielded a 50% inhibitory concentration (IC50) of 0.0249 µM. In turn, `COc1cc(OC)cc(-c2cc(N3CCOC[C@H]3C)nc3c(-c4ccn[nH]4)ncc(C)c23)c1` [Example 42, 4-(3,5-dimethoxyphenyl)-5-methyl-2-[(3R)-3-methylmorpholin-4-yl]-8-(1H-pyrazol-5-yl)-1,7-naphthyridine] showed a 50% inhibitory concentration (IC50) of 0.112 µM.

`Cc1cnc(-c2ccn[nH]2)c2nc(N3CCOC[C@H]3C)cc(-c3ccnc4ccccc34)c12` [Example 43, 5-methyl-2-[(3R)-3-methylmorpholin-4-yl]-8-(1H-pyrazol-5-yl)-4-(quinolin-4-yl)-1,7-naphthyridine] gave an IC50 of 0.036 µM. Molecule `Cc1cnc(-c2ccn[nH]2)c2nc(N3CCOC[C@H]3C)cc(-c3cccc4[nH]ccc34)c12` [Example 44, 4-(1H-indol-4-yl)-5-methyl-2-[(3R)-3-methylmorpholin-4-yl]-8-(1H-pyrazol-5-yl)-1,7-naphthyridine] came in with a half-maximal inhibitory concentration (IC50) of 0.0355 µM.

In the case of `Cc1cnc(-c2ccn[nH]2)c2nc(N3CCOC[C@H]3C)cc(-c3ccc4cc[nH]c4c3)c12` [Example 45, 4-(1H-indol-6-yl)-5-methyl-2-[(3R)-3-methylmorpholin-4-yl]-8-(1H-pyrazol-5-yl)-1,7-naphthyridine], the IC50 stood at 0.0947 µM.
